Source: PubChem BioAssay (NCI)
Several values for one entry are separate records, joined by “and”; a condition that tells them apart may be missing. Identical values can stand only once.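 Compound exposure: 48 hours, 5 concentrations, 96-well plates. The concentration for 50% growth inhibition is given as GI50. TGI marks complete inhibition of growth.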

What was measured:
Assay in all cases: growth of human tumour cells (NCI), 48 h
PC-3 prostate = test system: PC-3 prostate
LOX IMVI melanoma = test system: LOX IMVI melanoma
MDA-MB-468 breast = test system: MDA-MB-468 breast
SF-295 CNS = test system: SF-295 CNS
SN12C renal = test system: SN12C renal
SF-539 CNS = test system: SF-539 CNS
HOP-62 NSCLC = test system: HOP-62 NSCLC
SK-MEL-28 melanoma = test system: SK-MEL-28 melanoma
UACC-62 melanoma = test system: UACC-62 melanoma
UO-31 renal = test system: UO-31 renal
SNB-75 CNS = test system: SNB-75 CNS
MOLT-4 leukemia = test system: MOLT-4 leukemia
IGROV1 ovarian = test system: IGROV1 ovarian
HOP-92 NSCLC = test system: HOP-92 NSCLC
NCI-H23 lung = test system: NCI-H23 lung
HS 578T breast = test system: HS 578T breast
EKVX NSCLC = test system: EKVX NSCLC
A498 renal = test system: A498 renal
NCI/ADR-RES ovarian = test system: NCI/ADR-RES ovarian
COLO 205 colon = test system: COLO 205 colon
OVCAR-4 ovarian = test system: OVCAR-4 ovarian
RPMI-8226 leukemia = test system: RPMI-8226 leukemia
K-562 leukemia = test system: K-562 leukemia
MCF7 breast = test system: MCF7 breast
SK-OV-3 ovarian = test system: SK-OV-3 ovarian
A549 NSCLC = test system: A549 NSCLC
MDA-MB-231 breast = test system: MDA-MB-231 breast
NCI-H460 lung = test system: NCI-H460 lung
TK-10 renal = test system: TK-10 renal
DU-145 prostate = test system: DU-145 prostate
M14 melanoma = test system: M14 melanoma
HCC-2998 colon = test system: HCC-2998 colon
SK-MEL-5 melanoma = test system: SK-MEL-5 melanoma
SW-620 colon = test system: SW-620 colon
HCT-116 colon = test system: HCT-116 colon
786-0 renal = test system: 786-0 renal
CCRF-CEM leukemia = test system: CCRF-CEM leukemia
HT29 colon = test system: HT29 colon
SR leukemia = test system: SR leukemia
OVCAR-3 ovarian = test system: OVCAR-3 ovarian
BT-549 breast = test system: BT-549 breast
OVCAR-5 ovarian = test system: OVCAR-5 ovarian
NCI-H522 lung = test system: NCI-H522 lung
HCT-15 colon = test system: HCT-15 colon
MDA-MB-435 = test system: MDA-MB-435
U251 CNS = test system: U251 CNS
CAKI-1 renal = test system: CAKI-1 renal
NCI-H226 lung = test system: NCI-H226 lung
KM12 colon = test system: KM12 colon
OVCAR-8 ovarian = test system: OVCAR-8 ovarian
MALME-3M melanoma = test system: MALME-3M melanoma
SK-MEL-2 melanoma = test system: SK-MEL-2 melanoma
T-47D breast = test system: T-47D breast
RXF 393 renal = test system: RXF 393 renal
SNB-19 CNS = test system: SNB-19 CNS
UACC-257 melanoma = test system: UACC-257 melanoma
SF-268 CNS = test system: SF-268 CNS
ACHN renal = test system: ACHN renal
HL-60(TB) leukemia = test system: HL-60(TB) leukemia

With COc1cc2cc(C(=O)N3C[C@@H](CCl)c4c3cc(OC(=O)N(CCC(=O)N3CCN(C)CC3)[C@H]3CCSSC3)c3ccccc43)[nH]c2c(OC)c1OC the GI50 (PC-3 prostate) was 480 nM and 722 nM, the TGI (PC-3 prostate) was 6150 nM and 6130 nM and the GI50 (LOX IMVI melanoma) was 295 nM and 208 nM. For the same molecule, the TGI (LOX IMVI melanoma) was 781 nM and 891 nM, the GI50 (MDA-MB-468 breast) was 167 nM and the TGI (MDA-MB-468 breast) was 389 nM. The GI50 (SF-295 CNS) was 113 nM and 145 nM, the TGI (SF-295 CNS) was 1750 nM and 545 nM and the GI50 (SN12C renal) was 241 nM and 286 nM. The GI50 (SF-539 CNS) was 284 nM and 167 nM, the TGI (SF-539 CNS) was 642 nM and 409 nM and the GI50 (HOP-62 NSCLC) was 166 nM and 110 nM. For the same molecule, the TGI (HOP-62 NSCLC) was 1280 nM and 780 nM, the GI50 (SK-MEL-28 melanoma) was 413 nM and 293 nM and the TGI (SK-MEL-28 melanoma) was 846 nM and 826 nM. For the same molecule, the GI50 (UACC-62 melanoma) was 259 nM and 271 nM, the TGI (UACC-62 melanoma) was 587 nM and 1220 nM and the GI50 (UO-31 renal) was 333 nM and 221 nM. For the same molecule, the TGI (UO-31 renal) was 948 nM and 545 nM, the GI50 (SNB-75 CNS) was 388 nM and 181 nM and the TGI (SNB-75 CNS) was 1080 nM and 905 nM. For the same molecule, the GI50 (MOLT-4 leukemia) was 113 nM and 89.7 nM, the GI50 (IGROV1 ovarian) was 436 nM and 501 nM and the GI50 (HOP-92 NSCLC) was 657 nM and 346 nM. For the same molecule, the TGI (HOP-92 NSCLC) was 2130 nM and 1830 nM, the GI50 (NCI-H23 lung) was 75.9 nM and 55.3 nM and the TGI (NCI-H23 lung) was 358 nM and 254 nM. The GI50 (HS 578T breast) was 689 nM and 1410 nM, the TGI (HS 578T breast) was 3920 nM and 6080 nM and the GI50 (EKVX NSCLC) was 365 nM and 315 nM. The TGI (EKVX NSCLC) was 1040 nM and 1900 nM, the GI50 (A498 renal) was 251 nM and the TGI (A498 renal) was 541 nM. The GI50 (NCI/ADR-RES ovarian) was 292 nM, the TGI (NCI/ADR-RES ovarian) was 940 nM and the GI50 (COLO 205 colon) was 354 nM and 342 nM. For the same molecule, the TGI (COLO 205 colon) was 837 nM and 1510 nM, the GI50 (OVCAR-4 ovarian) was 513 nM and 464 nM and the TGI (OVCAR-4 ovarian) was 1270 nM and 4990 nM. For the same molecule, the GI50 (RPMI-8226 leukemia) was 477 nM and 222 nM, the TGI (RPMI-8226 leukemia) was 1850 nM and 1360 nM and the GI50 (K-562 leukemia) was 604 nM and 162 nM. The TGI (K-562 leukemia) was 25000 nM and > 100000 nM, the GI50 (MCF7 breast) was 55.7 nM and 35.3 nM and the TGI (MCF7 breast) was 652 nM and 1100 nM. The GI50 (SK-OV-3 ovarian) was 313 nM and 262 nM, the TGI (SK-OV-3 ovarian) was 1310 nM and 714 nM and the GI50 (A549 NSCLC) was 393 nM. The TGI (A549 NSCLC) was 1630 nM, the GI50 (MDA-MB-231 breast) was 516 nM and 579 nM and the TGI (MDA-MB-231 breast) was 1140 nM and 8190 nM. For the same molecule, the GI50 (NCI-H460 lung) was 99.6 nM and 55.7 nM, the TGI (NCI-H460 lung) was 2580 nM and 341 nM and the GI50 (TK-10 renal) was 3370 nM. For the same molecule, the TGI (TK-10 renal) was 11000 nM, the GI50 (DU-145 prostate) was 113 nM and 58.5 nM and the TGI (DU-145 prostate) was 3390 nM and 1490 nM. For the same molecule, the GI50 (M14 melanoma) was 317 nM and 192 nM, the TGI (M14 melanoma) was 824 nM and 545 nM and the GI50 (HCC-2998 colon) was 154 nM and 158 nM. For the same molecule, the TGI (HCC-2998 colon) was 579 nM and 331 nM, the GI50 (SK-MEL-5 melanoma) was 327 nM and the TGI (SK-MEL-5 melanoma) was 656 nM. For the same molecule, the GI50 (SW-620 colon) was 399 nM and 221 nM, the TGI (SW-620 colon) was 1900 nM and 911 nM and the GI50 (HCT-116 colon) was 389 nM and 158 nM. For the same molecule, the TGI (HCT-116 colon) was 3620 nM and 558 nM, the GI50 (786-0 renal) was 368 nM and the TGI (786-0 renal) was 1340 nM. For the same molecule, the GI50 (CCRF-CEM leukemia) was 559 nM and 219 nM, the GI50 (HT29 colon) was 474 nM and 270 nM and the TGI (HT29 colon) was 1730 nM and 1050 nM. For the same molecule, the GI50 (SR leukemia) was 56.7 nM and 34.2 nM, the GI50 (OVCAR-3 ovarian) was 236 nM and the TGI (OVCAR-3 ovarian) was 581 nM. The GI50 (BT-549 breast) was 361 nM and 228 nM, the TGI (BT-549 breast) was 799 nM and 989 nM and the GI50 (OVCAR-5 ovarian) was 560 nM. For the same molecule, the TGI (OVCAR-5 ovarian) was 1750 nM, the GI50 (NCI-H522 lung) was 433 nM and 263 nM and the TGI (NCI-H522 lung) was 1110 nM and 979 nM. For the same molecule, the GI50 (HCT-15 colon) was 271 nM and 260 nM, the TGI (HCT-15 colon) was 1110 nM and 1430 nM and the GI50 (MDA-MB-435) was 404 nM and 213 nM. The TGI (MDA-MB-435) was 788 nM and 529 nM, the GI50 (U251 CNS) was 299 nM and 164 nM and the TGI (U251 CNS) was 2800 nM and 423 nM. For the same molecule, the GI50 (CAKI-1 renal) was 272 nM, the TGI (CAKI-1 renal) was 4490 nM and the GI50 (NCI-H226 lung) was 1570 nM and 435 nM. For the same molecule, the TGI (NCI-H226 lung) was 25000 nM and 4470 nM, the GI50 (KM12 colon) was 535 nM and 268 nM and the TGI (KM12 colon) was 1640 nM and 1050 nM. For the same molecule, the GI50 (OVCAR-8 ovarian) was 275 nM and 186 nM, the GI50 (MALME-3M melanoma) was 405 nM and 280 nM and the TGI (MALME-3M melanoma) was 796 nM and 744 nM. The GI50 (SK-MEL-2 melanoma) was 417 nM and 214 nM, the TGI (SK-MEL-2 melanoma) was 777 nM and 381 nM and the GI50 (T-47D breast) was 631 nM and 696 nM. The TGI (T-47D breast) was 25000 nM and 7830 nM, the GI50 (RXF 393 renal) was 322 nM and 149 nM and the TGI (RXF 393 renal) was 724 nM and 297 nM. For the same molecule, the GI50 (SNB-19 CNS) was 258 nM and 252 nM, the GI50 (UACC-257 melanoma) was 475 nM and 630 nM and the TGI (UACC-257 melanoma) was 1150 nM and 3710 nM. For the same molecule, the GI50 (SF-268 CNS) was 403 nM and 187 nM, the GI50 (ACHN renal) was 83.1 nM and the TGI (ACHN renal) was 571 nM. For the same molecule, the GI50 (HL-60(TB) leukemia) was 325 nM and 119 nM and the TGI (HL-60(TB) leukemia) was 2790 nM and 952 nM.
